Converted amounts (≈) assume the structure as drawn. Like-named read-outs stand apart in the source and are kept apart here.
Key:
[1] = HIV positive, ARC and AIDS individuals; cited from earlier work
[2] = target: T1, HIV-1 protease (Human immunodeficiency virus type 1 group M subtype B, UniProt P04585); assay: HPLC assay of proteolytic activity of recombinant HIV-1 protease (SQNYPIV substrate); assay type: biochemical; conditions: for Inhibition (inhibitory activity of compounds against HIV-1 protease) / inhibition at 17.9 µg/mL: 17.9 μg/ml, HPLC assay; for inhibition at 17.9 µg/mL: read-out: Inhibition (inhibitory activity of compounds against HIV-1 protease); for anti-HIV-1 protease activity (in words): 17.9 μg/ml (tested concentration)
T1 construct: Recombinant HIV-1 protease was prepared from the expression vector, PGEX-PR 107; made in house
Method: Recombinant HIV-1 protease was prepared from the expression vector, PGEX-PR 107, in E. coli DII5a and was purified according to the method established in Dr. Wan's laboratory.
The proteolytic activity of HIV-1 PR was measured by Dr. Wan's group at the Biochemistry Department using the synthetic heptapeptide Ser-Gln-Asn-Tyr-Pro-Ile-Val (SQNYPIV), corresponding to the p24-p17 cleavage site in the natural gag precursor, as substrate. The products of cleavage were analyzed by reversed-phase high-performance liquid chromatography (RP-HPLC, Ultrasphere ODS, 5μ, 4.6 mm×15 cm, Beckman, Calif., USA) with a 7-33% acetonitrile gradient in 0.1% trifluoroacetic acid (TFA). Product peak areas were integrated by a data system (Chromatopac C-R3A, Shimadzu, Japan) and compared with the standard peptide SQNY, which is expected to be generated from heptapeptide SQNYPIV after HIV-1 protease digestion. The extinction coefficient of the peptide SQNY was used to estimate the rate of proteolysis of the heptapeptide substrate. The assay was performed in a volume of 140 μl containing 90 pmole of substrate, 2 U of HIV-1 protease and compound solution in 0.1 M NaOAc buffer, pH 5.5, with 1 M (NH4)2 SO4, at 37° C. The reaction which proceeded for 2 h was terminated by the addition of 20 μl of aqueous 10% trifluoroacetic acid. The supernatant obtained by centrifuging at 12,000 rpm for 3 min was then analyzed by the hplc method. The unit of enzyme activity was defined as the amount of enzyme which yields 1 nmol of tetrapeptide SQNY under the above conditions in 1 min.
The proteolytic activity of HIV-1 protease inhibited by the compound was calculated as the activity of the control subtracting that of the sample, and then divided by itself.

[3] = test system: HIV; conditions: cited from earlier work
[4] = test system: HIV; conditions: cited from earlier work; remark: listed apart in the source
[5] = test system: HIV; conditions: cited from earlier work; remark: listed apart in the source
[6] = test system: HSV; conditions: cited from earlier work
[7] = test system: HIV-specific antigen expression; conditions: MT-4 cells; cited from earlier work
[8] = test system: HIV-infected Molt-4 clone No. 8 cells; conditions: cited from earlier work
[9] = test system: HIV; conditions: MT-4 cells, cited from earlier work
[10] = test system: HIV; conditions: MT-4 cells; cited from earlier work

Molecule: Cc1cn([C@H]2C[C@H](N=[N+]=[N-])[C@@H](CO)O2)c(=O)[nH]c1=O [AZT, 3'-azido-3'-deoxythymidine]
- toxicity [1]: frequently toxic, causing bone marrow suppression resulting in anemia leucopenia and thrombocytopenia

Molecule: C[C@@H]1CC[C@]2(C(=O)O)CC[C@]3(C)C(=CC[C@@H]4[C@@]5(C)C[C@@H](O)C(=O)C(C)(C)[C@@H]5CC[C@]43C)[C@@H]2[C@]1(C)O [Compound 1, 2α,19α-Dihydroxy-3-oxo-12-ursen-28-oic acid]
- Inhibition (inhibitory activity of compounds against HIV-1 protease) [2]: 72.19%
- inhibition at 17.9 µg/mL [2]: 72%

Molecule: C[C@H]1[C@H](C)CC[C@]2(C(=O)O)CC[C@]3(C)C(=CC[C@@H]4[C@@]5(C)CC[C@H](O)C(C)(C)[C@@H]5CC[C@]43C)[C@H]12 [Compound 2, 3β-Hydroxy-12-ursen-28-oic acid]
- Inhibition (inhibitory activity of compounds against HIV-1 protease) [2]: 85.07%
- inhibition at 17.9 µg/mL [2]: 85%

Molecule: C[C@@H]1CC[C@]2(C(=O)O)CC[C@]3(C)C(=CC[C@@H]4[C@@]5(C)CC[C@@H](O)C(C)(C)[C@@H]5CC[C@]43C)[C@@H]2[C@]1(C)O [Compound 3, 3α,19α-Dihydroxy-12-ursen-28-oic acid]
- Inhibition (inhibitory activity of compounds against HIV-1 protease) [2]: 42.18%
- inhibition at 17.9 µg/mL [2]: 42%

Molecule: CC1(C)CC[C@]2(C(=O)O)CC[C@]3(C)C(=CC[C@@H]4[C@@]5(C)C[C@@H](O)[C@H](O)C(C)(C)[C@@H]5CC[C@]43C)[C@@H]2C1 [Compound 4, 2α,3β-Dihydroxy-12-oleanen-28-oic acid]
- anti-HIV-1 protease activity (in words) [2]: most active
- inhibition at 17.9 µg/mL [2]: 100%

Molecule: C[C@@H]1CC[C@]2(C(=O)O)CC[C@]3(C)C(=CC[C@@H]4[C@@]5(C)C[C@@H](O)[C@@H](O)C(C)(C)[C@@H]5CC[C@]43C)[C@@H]2[C@]1(C)O [Compound 5, 2α,3α,19α-Trihydroxy-12-ursen-28-oic acid]
- anti-HIV-1 protease activity (in words) [2]: did not show activity

Molecule: C[C@@H]1CC[C@]2(C(=O)O)CC[C@]3(C)C(=CC[C@@H]4[C@@]5(C)C[C@@H](O)[C@H](O)C(C)(C)[C@@H]5CC[C@]43C)[C@@H]2[C@]1(C)O [Compound 6, 2α,3β,19α-Trihydroxy-12-ursen-28-oic acid]
- Inhibition (inhibitory activity of compounds against HIV-1 protease) [2]: 49.47%
- inhibition at 17.9 µg/mL [2]: 49%

Molecule: COc1ccc(-c2cc(=O)c3c(O)cc(O[C@@H]4O[C@H](CO)[C@H](O)[C@H](O)[C@H]4O)cc3o2)cc1 [acacetin-7-O-β-D-galactopyranoside]
- EC50 [3]: 8 µM
- IC50 [3]: 37 µM
- anti-HIV activity (in words) [3]: significant anti-HIV activity
- therapeutic index [3]: 5

Molecule: COc1c(O)cc2c(c1O)[C@@H]1O[C@H](CO)[C@@H](O)[C@H](O)[C@H]1OC2=O [bergenin]
- anti-HIV activity (in words) ([4]; in vitro): moderate anti-HIV activity

Molecule: C=C(C)[C@@H]1CC[C@]2(C(=O)O)CC[C@]3(C)[C@H](CC[C@@H]4[C@@]5(C)CC[C@H](O)C(C)(C)[C@@H]5CC[C@]43C)[C@@H]12 [betulinic acid]
- inhibition of HIV replication (in words) [5]: potent inhibitors of HIV replication

Molecule: CC(C)[C@@H]1CC[C@]2(C(=O)O)CC[C@]3(C)C(CCC4[C@@]5(C)CC[C@H](O)C(C)(C)C5CC[C@]43C)C12 (stereo partly shown) [dihydrobetulinic acid]
- inhibition of HIV replication (in words) [5]: potent inhibitors of HIV replication

Molecule: O=Cc1cc(O)c(O)c(O)c1 [gallic aldehyde]
- anti-HSV activity (in words) [6]: strong anti-HSV activity

Molecule: CC1(C)[C@@H](O[C@H]2O[C@H](C(=O)O)[C@@H](O)[C@H](O)[C@H]2O[C@@H]2O[C@H](C(=O)O)[C@@H](O)[C@H](O)[C@H]2O)CC[C@]2(C)[C@H]3C(=O)C=C4[C@@H]5C[C@@](C)(C(=O)O)CC[C@]5(C)CC[C@@]4(C)[C@]3(C)CC[C@@H]12 [glycyrrhizin]
- concentration at which HIV-specific antigen expression was inhibited [7]: 0.6 mM
- inhibition of giant cell formation [8]: inhibited giant cell formation
- concentration at which HIV-induced plaque formation was inhibited [9]: 0.6 mM
- IC50 ([9]; read-out: 50% inhibitory dose, HIV-induced plaque formation): 150 µM
- concentration at which cytopathic effect of HIV was inhibited [10]: 0.3 mM

Molecule: O=C1O[C@@H]2[C@@H](O)[C@H](O)[C@@H](CO)O[C@H]2c2c1cc(O)c(O)c2O [norbergenin]
- selectivity index ([4]; IC50/EC50 basis not stated): above 25
- EC50 ([4]; in vitro anti-HIV): 20 µg/mL (≈ 63.6 µM)
- IC50 ([4]; in vitro): over 500 μg/ml
- anti-HIV activity (in words) ([4]; in vitro): moderate anti-HIV activity

Molecule: CC(=O)[C@@H]1CC[C@]2(C(=O)O)CC[C@]3(C)[C@H](CC[C@@H]4[C@@]5(C)CC[C@H](O)C(C)(C)[C@@H]5CC[C@]43C)[C@@H]12 [platanic acid]
- inhibition of HIV replication (in words) [5]: potent inhibitors of HIV replication

Molecule: geponin
- anti-HSV activity (in words) [6]: strong anti-HSV activity

— patent US5916919A, “Retrovirus protease inhibitors” (priority 1997, dated 1999)
